In patent US10232058B2, “Prostate-specific membrane antigen-targeted photosensitizers for photodynamic therapy” (THE JOHNS HOPKINS UNIVERSITY, priority 2013, dated 2019) one finds Ki data, which are given here for one molecule.

Molecules are shown by their SMILES.

The target in this test is PSMA (Homo sapiens, UniProt Q04609). Nature of the test: fluorescence-based PSMA binding assay. Conditions: read-out: PSMA binding affinity Ki.
Chain of PSMA (Q04609 whole entry): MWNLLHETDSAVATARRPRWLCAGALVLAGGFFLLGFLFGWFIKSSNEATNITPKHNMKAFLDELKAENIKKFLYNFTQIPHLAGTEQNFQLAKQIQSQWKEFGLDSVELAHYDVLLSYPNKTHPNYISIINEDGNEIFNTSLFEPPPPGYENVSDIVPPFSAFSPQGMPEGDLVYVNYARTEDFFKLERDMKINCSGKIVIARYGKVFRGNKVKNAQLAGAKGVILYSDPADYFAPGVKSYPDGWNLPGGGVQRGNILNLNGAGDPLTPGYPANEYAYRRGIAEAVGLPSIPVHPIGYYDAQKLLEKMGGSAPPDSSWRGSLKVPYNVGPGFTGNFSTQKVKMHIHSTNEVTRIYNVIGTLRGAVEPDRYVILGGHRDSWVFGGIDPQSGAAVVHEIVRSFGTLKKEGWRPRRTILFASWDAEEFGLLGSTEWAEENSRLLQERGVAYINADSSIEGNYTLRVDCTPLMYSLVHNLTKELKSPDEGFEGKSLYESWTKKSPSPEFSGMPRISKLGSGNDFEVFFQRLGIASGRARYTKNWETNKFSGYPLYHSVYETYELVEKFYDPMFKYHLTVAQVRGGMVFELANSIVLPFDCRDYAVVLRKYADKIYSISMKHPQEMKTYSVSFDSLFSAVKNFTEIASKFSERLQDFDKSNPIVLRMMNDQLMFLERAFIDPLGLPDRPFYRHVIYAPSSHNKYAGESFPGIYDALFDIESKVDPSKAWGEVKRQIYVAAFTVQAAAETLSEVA

As to `C=Cc1c(C)c2cc3nc(c4c5[nH]c(cc6nc(cc1[nH]2)C(C)=C6CC)c(C)c5C(=O)C4)[C@H](CCC(=O)NCCCCC(NC(=O)CCCCCCC(=O)NCCCC[C@H](NC(=O)N[C@@H](CCC(=O)O)C(=O)O)C(=O)O)C(=O)O)[C@H]3C` (stereo partly shown) [YC-6], the inhibition constant (Ki) stood at 1.2 nM.

A word on the Ki: it is the dissociation constant of the complex between target and ligand, obtained from inhibition or displacement.
